# System: 422866-222-R5-J1-PDC spheroids with HUVEC/MSC, viability
# Assay: Anticancer human tumor 422866-222-R5-J1-PDC patient-derived pancreatic adenocarcinoma cell line growth inhibition [GQUAD]
# Conditions: for IC50: curve of first compound; for viability, T/C: stronger effect = lower value
# In short: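 Multi-cell-type spheroids of tumor cells with HUVEC and mesenchymal stem cells, treated with drug combinations. Concentrations descend in half-log steps from near clinical Cmax, or from 10 microM where Cmax is unknown; viability read-out.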
# [1] = second compound 0.0316 µM, first compound 0.0316 µM
# [2] = second compound 0.0316 µM, first compound 0.1 µM
# [3] = second compound 0.0316 µM, first compound 0.316 µM
# [4] = second compound 0.0316 µM, first compound 1 µM
# [5] = second compound 0.0316 µM, first compound 3.16 µM
# [6] = second compound 0.0316 µM, first compound 10 µM
# [7] = second compound 0.1 µM, first compound 0.0316 µM
# [8] = second compound 0.1 µM, first compound 0.1 µM
# [9] = second compound 0.1 µM, first compound 0.316 µM
# [10] = second compound 0.1 µM, first compound 1 µM
# [11] = second compound 0.1 µM, first compound 3.16 µM
# [12] = second compound 0.1 µM, first compound 10 µM
# [13] = second compound 0.316 µM, first compound 0.0316 µM
# [14] = second compound 0.316 µM, first compound 0.1 µM
# [15] = second compound 0.316 µM, first compound 0.316 µM
# [16] = second compound 0.316 µM, first compound 1 µM
# [17] = second compound 0.316 µM, first compound 3.16 µM
# [18] = second compound 0.316 µM, first compound 10 µM
# [19] = second compound 1 µM, first compound 0.0316 µM
# [20] = second compound 1 µM, first compound 0.1 µM
# [21] = second compound 1 µM, first compound 0.316 µM
# [22] = second compound 1 µM, first compound 1 µM
# [23] = second compound 1 µM, first compound 3.16 µM
# [24] = second compound 1 µM, first compound 10 µM
# [25] = second compound 3.16 µM, first compound 0.0316 µM
# [26] = second compound 3.16 µM, first compound 0.1 µM
# [27] = second compound 3.16 µM, first compound 0.316 µM
# [28] = second compound 3.16 µM, first compound 1 µM
# [29] = second compound 3.16 µM, first compound 3.16 µM
# [30] = second compound 3.16 µM, first compound 10 µM
# [31] = second compound 10 µM, first compound 0.0316 µM
# [32] = second compound 10 µM, first compound 0.1 µM
# [33] = second compound 10 µM, first compound 0.316 µM
# [34] = second compound 10 µM, first compound 1 µM
# [35] = second compound 10 µM, first compound 3.16 µM
# [36] = second compound 10 µM, first compound 10 µM
# 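Note: spheroids exposed to compounds for seven days before reading.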
# 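Throughout, for viability, T/C: percent viability relative to DMSO vehicle control taken as 100%.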
compound,measurement,setting,value
COc1cc(C2c3cc4c(cc3C(OC3OC5COC(C)OC5C(O)C3O)C3COC(=O)C23)OCO4)cc(OC)c1O (stereo unspecified) + CN(C)c1ccc(Nc2c3ccc(NC(=O)CCN4CCCC4)cc3nc3cc(NC(=O)CCN4CCCC4)ccc23)cc1,IC50,second compound 0.0316 µM,1.89 µM
same,IC50,second compound 0.1 µM,1.52 µM
same,IC50,second compound 0.316 µM,3.33 µM
same,IC50,second compound 1 µM,0.926 µM
same,IC50,second compound 3.16 µM,3.09 µM
same,IC50,second compound 10 µM,4.39 µM
same,"viability, T/C",[1],97.3%
same,"viability, T/C",[2],89%
same,"viability, T/C",[3],84.5%
same,"viability, T/C",[4],57.5%
same,"viability, T/C",[5],41.4%
same,"viability, T/C",[6],45.4%
same,"viability, T/C",[7],116%
same,"viability, T/C",[8],86.6%
same,"viability, T/C",[9],70.9%
same,"viability, T/C",[10],54.1%
same,"viability, T/C",[11],40.9%
same,"viability, T/C",[12],38.2%
same,"viability, T/C",[13],101%
same,"viability, T/C",[14],92.9%
same,"viability, T/C",[15],73.8%
same,"viability, T/C",[16],59.2%
same,"viability, T/C",[17],50.7%
same,"viability, T/C",[18],46.3%
same,"viability, T/C",[19],92%
same,"viability, T/C",[20],79.4%
same,"viability, T/C",[21],63.9%
same,"viability, T/C",[22],47.1%
same,"viability, T/C",[23],44.4%
same,"viability, T/C",[24],38.1%
same,"viability, T/C",[25],85.7%
same,"viability, T/C",[26],76.2%
same,"viability, T/C",[27],65.9%
same,"viability, T/C",[28],56.2%
same,"viability, T/C",[29],49.9%
same,"viability, T/C",[30],46%
same,"viability, T/C",[31],73.2%
same,"viability, T/C",[32],80.8%
same,"viability, T/C",[33],67.1%
same,"viability, T/C",[34],63.9%
same,"viability, T/C",[35],55.9%
same,"viability, T/C",[36],38.2%
CC(C)(O)C1CCC(Nc2ccc3ncc(-c4cccc(C(F)(F)F)c4)n3n2)CC1 (stereo unspecified) + CN(C)c1ccc(Nc2c3ccc(NC(=O)CCN4CCCC4)cc3nc3cc(NC(=O)CCN4CCCC4)ccc23)cc1,IC50,second compound 0.0316 µM,2.09 µM
same,IC50,second compound 0.1 µM,2.67 µM
same,IC50,second compound 0.316 µM,1.71 µM
same,IC50,second compound 1 µM,1.77 µM
same,IC50,second compound 3.16 µM,1.57 µM
same,IC50,second compound 10 µM,> 10 µM
same,"viability, T/C",[1],88%
same,"viability, T/C",[2],80.5%
same,"viability, T/C",[3],92.9%
same,"viability, T/C",[4],71.8%
same,"viability, T/C",[5],38.4%
same,"viability, T/C",[6],33.1%
same,"viability, T/C",[7],90.2%
same,"viability, T/C",[8],87.4%
same,"viability, T/C",[9],81.1%
same,"viability, T/C",[10],68.5%
same,"viability, T/C",[11],45.7%
same,"viability, T/C",[12],39%
same,"viability, T/C",[13],72.7%
same,"viability, T/C",[14],82.4%
same,"viability, T/C",[15],66.1%
same,"viability, T/C",[16],58.5%
same,"viability, T/C",[17],41.3%
same,"viability, T/C",[18],36.9%
same,"viability, T/C",[19],85.6%
same,"viability, T/C",[20],80.2%
same,"viability, T/C",[21],77.2%
same,"viability, T/C",[22],57.6%
same,"viability, T/C",[23],42.1%
same,"viability, T/C",[24],35.4%
same,"viability, T/C",[25],82.2%
same,"viability, T/C",[26],77.2%
same,"viability, T/C",[27],64.3%
same,"viability, T/C",[28],63.5%
same,"viability, T/C",[29],33%
same,"viability, T/C",[30],40.6%
same,"viability, T/C",[31],77.4%
same,"viability, T/C",[32],69.6%
same,"viability, T/C",[33],79.1%
same,"viability, T/C",[34],75.4%
same,"viability, T/C",[35],63.2%
same,"viability, T/C",[36],55.5%
Nc1ccn(C2OC(CO)C(O)C2(F)F)c(=O)n1 (stereo unspecified) + CN(C)c1ccc(Nc2c3ccc(NC(=O)CCN4CCCC4)cc3nc3cc(NC(=O)CCN4CCCC4)ccc23)cc1,IC50,second compound 0.0316 µM,3.23 µM
same,IC50,second compound 0.1 µM,0.869 µM
same,IC50,second compound 0.316 µM,1.08 µM
same,IC50,second compound 1 µM,0.451 µM
same,IC50,second compound 3.16 µM,0.277 µM
same,IC50,second compound 10 µM,> 10 µM
same,"viability, T/C",[1],89.5%
same,"viability, T/C",[2],71.6%
same,"viability, T/C",[3],74.6%
same,"viability, T/C",[4],54.4%
same,"viability, T/C",[5],52.5%
same,"viability, T/C",[6],41.5%
same,"viability, T/C",[7],104%
same,"viability, T/C",[8],70.8%
same,"viability, T/C",[9],66.5%
same,"viability, T/C",[10],43.5%
same,"viability, T/C",[11],44.6%
same,"viability, T/C",[12],39.2%
same,"viability, T/C",[13],91.4%
same,"viability, T/C",[14],68.4%
same,"viability, T/C",[15],54.4%
same,"viability, T/C",[16],57.1%
same,"viability, T/C",[17],48.2%
same,"viability, T/C",[18],36.5%
same,"viability, T/C",[19],72.7%
same,"viability, T/C",[20],59%
same,"viability, T/C",[21],57.6%
same,"viability, T/C",[22],39.6%
same,"viability, T/C",[23],41.3%
same,"viability, T/C",[24],34.7%
same,"viability, T/C",[25],75.6%
same,"viability, T/C",[26],67.6%
same,"viability, T/C",[27],48.7%
same,"viability, T/C",[28],35%
same,"viability, T/C",[29],39.4%
same,"viability, T/C",[30],39.2%
same,"viability, T/C",[31],73.6%
same,"viability, T/C",[32],57.9%
same,"viability, T/C",[33],57.9%
same,"viability, T/C",[34],50.9%
same,"viability, T/C",[35],51.8%
same,"viability, T/C",[36],49%
